For assay [1], the system named is pS6 S235/S236 in A2058 cells. Kind of assay: In-cell Western blot, pS6 S235/S236. In kind it is cell-based. The note with it: Homo sapiens, 1 hour treatment, signal normalized to α-tubulin.
Method: (§1) Cells are fixed with 4% paraformaldehyde for 30 minutes at room temperature, washed 2 times with 1% BSA in PBS, permeabilized with 0.1% Triton X-100 in PBS/1% BSA for 30 minutes at room temperature and blocked with 5% goat serum in PBS/1% BSA/0.1% Triton X-100 for 30 minutes at room temperature. […] Cells are washed 3 times 5 minutes with PBS/1% BSA/0.1% triton and plate scanned with the Odyssey Infrared Scanning system using both 700 and 800 nm channels. […] To correct for background staining in the data analysis wells are treated only with secondary antibodies.
(§2) For data analysis the mean background signal from channel 700 nm and 800 nm are subtracted from each signal in channel 700 nm and 800 nm, respectively.
(§3) IC50 values of each compound are determined by plotting the normalized pPBK S473 and pS6 S235/S236 signals, respectively, versus the compound concentrations (in logarithmic scale) and then by fitting a sigmoidal dose-response curve with variable slope to the data using GraphPad™ Prism.
Assay [2] has as its system pPKB S473 in A2058 cells. The assay can be described thus: In-cell Western blot, pPKB S473. In kind it is cell-based. To be noted: Homo sapiens, 1 hour treatment, signal normalized to α-tubulin.
Method: as §1, §2, §3
The target in assay [3] is P110α (Homo sapiens, UniProt P42336). Kind of assay: P110α IC50 (Table 12, comparative biological activities). In kind it is biochemical.
Sequence of P110α (P42336 whole entry, species assumed): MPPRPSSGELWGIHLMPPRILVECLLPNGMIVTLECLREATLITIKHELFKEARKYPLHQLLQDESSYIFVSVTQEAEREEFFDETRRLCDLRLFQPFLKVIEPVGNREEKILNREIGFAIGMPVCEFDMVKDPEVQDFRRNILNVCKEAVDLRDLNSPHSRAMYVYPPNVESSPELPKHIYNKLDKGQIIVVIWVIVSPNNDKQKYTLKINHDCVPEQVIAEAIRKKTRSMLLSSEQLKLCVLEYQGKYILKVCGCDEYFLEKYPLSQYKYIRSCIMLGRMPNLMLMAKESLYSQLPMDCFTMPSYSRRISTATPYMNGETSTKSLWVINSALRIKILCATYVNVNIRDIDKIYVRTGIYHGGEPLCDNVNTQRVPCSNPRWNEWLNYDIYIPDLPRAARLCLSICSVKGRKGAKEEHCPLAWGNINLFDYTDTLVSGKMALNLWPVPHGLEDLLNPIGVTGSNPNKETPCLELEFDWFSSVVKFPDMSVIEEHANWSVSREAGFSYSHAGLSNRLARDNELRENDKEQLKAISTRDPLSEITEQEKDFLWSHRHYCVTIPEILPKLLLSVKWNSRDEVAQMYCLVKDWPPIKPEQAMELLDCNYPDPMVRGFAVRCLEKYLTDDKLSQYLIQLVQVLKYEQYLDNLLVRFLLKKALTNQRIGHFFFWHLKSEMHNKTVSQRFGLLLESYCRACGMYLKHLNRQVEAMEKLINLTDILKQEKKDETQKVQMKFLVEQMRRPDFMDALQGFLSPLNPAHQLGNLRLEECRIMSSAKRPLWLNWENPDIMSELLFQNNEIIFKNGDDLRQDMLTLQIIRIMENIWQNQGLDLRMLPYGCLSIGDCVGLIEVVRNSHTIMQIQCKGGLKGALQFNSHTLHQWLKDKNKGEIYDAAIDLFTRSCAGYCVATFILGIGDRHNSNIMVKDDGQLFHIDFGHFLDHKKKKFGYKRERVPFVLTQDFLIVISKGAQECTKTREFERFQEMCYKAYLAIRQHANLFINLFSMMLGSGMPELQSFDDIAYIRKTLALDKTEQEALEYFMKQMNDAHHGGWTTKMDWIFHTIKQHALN
Sequence of P110α (P27986 whole entry partner, species assumed): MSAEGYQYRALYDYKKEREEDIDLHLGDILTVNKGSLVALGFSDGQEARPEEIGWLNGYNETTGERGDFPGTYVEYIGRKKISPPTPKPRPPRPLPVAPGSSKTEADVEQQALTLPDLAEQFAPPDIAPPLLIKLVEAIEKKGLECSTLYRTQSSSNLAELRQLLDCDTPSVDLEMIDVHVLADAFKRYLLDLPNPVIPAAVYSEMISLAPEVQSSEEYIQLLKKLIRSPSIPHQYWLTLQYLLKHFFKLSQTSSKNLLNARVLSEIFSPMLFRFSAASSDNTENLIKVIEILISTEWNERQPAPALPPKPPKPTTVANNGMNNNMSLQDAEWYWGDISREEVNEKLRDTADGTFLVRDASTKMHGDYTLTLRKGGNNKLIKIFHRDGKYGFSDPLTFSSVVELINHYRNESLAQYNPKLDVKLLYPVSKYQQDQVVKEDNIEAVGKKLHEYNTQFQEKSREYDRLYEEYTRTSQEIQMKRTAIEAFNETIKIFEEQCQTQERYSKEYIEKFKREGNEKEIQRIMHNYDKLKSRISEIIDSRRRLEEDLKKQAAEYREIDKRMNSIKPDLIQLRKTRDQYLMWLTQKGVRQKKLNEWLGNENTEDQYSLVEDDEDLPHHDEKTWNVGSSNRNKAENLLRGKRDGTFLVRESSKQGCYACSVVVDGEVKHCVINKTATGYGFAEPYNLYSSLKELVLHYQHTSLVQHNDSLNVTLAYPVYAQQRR

Each structure is given as a SMILES string.

As for `Nc1cc(C(F)(F)F)c(-c2nc(N3CCOCC3)nc(N3CCOCC3)n2)cn1`, the half-maximal inhibitory concentration (IC50) – broadly, the concentration needed to halve the response being measured – in assay [1] (A2058, 1 h) came to 340 nM; in assay [2] (A2058, 1 h) it was 149 nM.

Consider `C[C@H]1COCCN1c1nc(-c2cnc(N)cc2C(F)F)nc(N2CCOC[C@@H]2C)n1`, for which the IC50 is 215 nM in assay [1] (A2058, 1 h) and 155 nM in assay [2] (A2058, 1 h).

For the compound `C[C@H]1COCCN1c1nc(-c2cnc(N)cc2C(F)(F)F)nc(N2CCOC[C@@H]2C)n1`, the IC50 is 433 nM in assay [1] (A2058, 1 h) and 255 nM in assay [2] (A2058, 1 h).

On to `C[C@H]1COCCN1c1nc(-c2cnc(N)nc2C(F)F)nc(N2CCOC[C@@H]2C)n1`, for which 97 nM corresponded to half-maximal inhibition in assay [1] (A2058, 1 h) (IC50). This counts as double-digit nanomolar.

For the compound `C[C@H]1COCCN1c1nc(-c2cnc(N)nc2C(F)(F)F)nc(N2CCOC[C@@H]2C)n1`, the IC50 stood at 224 nM in assay [1] (A2058, 1 h) and 118 nM in assay [2] (A2058, 1 h).

In assay [1] (A2058, 1 h), `Nc1ncc(-c2nc(N3CCOCC3)cc(N3CCOCC3)n2)c(C(F)F)n1` returned an IC50 of 147 nM.

As to `C[C@H]1COCCN1c1cc(-c2cnc(N)nc2C(F)F)nc(N2CCOCC2)n1`, the IC50 in assay [1] (A2058, 1 h) is 146 nM; in assay [2] (A2058, 1 h), 77 nM.

Consider `C[C@H]1OC(=O)N(c2nc(-c3cnc(N)nc3C(F)F)nc(N3CCOCC3)n2)[C@H]1CO`, for which the IC50 was 100 nM in assay [2] (A2058, 1 h) and 161 nM in assay [3].

As for `Nc1cc(C(F)F)c(-c2nc(N3CCOCC3)nc(N3CCOCC3=O)n2)cn1` [Example 35, 4-[4-[6-amino-4-(difluoromethyl)-3-pyridyl]-6-morpholino-1,3,5-triazin-2-yl]morpholin-3-one], the IC50 in assay [1] (A2058, 1 h) amounted to 229 nM; in assay [2] (A2058, 1 h), 207 nM.

On to `Nc1ncc(-c2nc(N3CCOCC3)nc(N3CCOCC3=O)n2)c(C(F)F)n1` [Example 36, 4-[4-[2-amino-4-(difluoromethyl)pyrimidin-5-yl]-6-morpholino-1,3,5-triazin-2-yl]morpholin-3-one], for which the IC50 was 153 nM in assay [1] (A2058, 1 h) and 99 nM in assay [2] (A2058, 1 h).

On to `C[C@@H]1COCCN1c1nc(-c2cnc(N)cc2C(F)F)nc(-c2cnc(N)cc2C(F)F)n1` [Example 43, 5-[4-[6-amino-4-(difluoromethyl)-3-pyridyl]-6-[(3R)-3-methylmorpholin-4-yl]-1,3,5-triazin-2-yl]-4-(difluoromethyl)pyridin-2-amine], for which the IC50 in assay [1] came out at 154 nM; in assay [2], 383 nM.

With `Nc1cc(C(F)(F)F)c(-c2nc(N3CCNCC3)nc(N3CCOCC3)n2)cn1` [reference compound], the 50% inhibitory concentration (IC50) in assay [1] (A2058, 1 h) is 743 nM; in assay [2] (A2058, 1 h) it was 302 nM.

`Nc1ncc(-c2nc(N3CCNCC3)nc(N3CCOCC3)n2)c(C(F)(F)F)n1` [reference compound]: the IC50 in assay [1] (A2058, 1 h) is 416 nM; in assay [2] (A2058, 1 h), 116 nM.

Consider `Nc1cc(C(F)(F)F)c(-c2nc(N3CCOCC3)nc(N3CCSCC3)n2)cn1` [reference compound], for which the IC50 was 559 nM in assay [1] (A2058, 1 h) and 311 nM in assay [2] (A2058, 1 h).

For `Nc1ncc(-c2nc(N3CCOCC3)nc(N3CCSCC3)n2)c(C(F)(F)F)n1` [reference compound], the IC50 in assay [1] (A2058, 1 h) is 996 nM; in assay [2] (A2058, 1 h), 343 nM.

Consider `C[C@H]1OC(=O)N(c2nc(-c3cnc(N)nc3C(F)(F)F)nc(N3CCOCC3)n2)[C@H]1CO` [reference compound], for which the IC50 in assay [2] (A2058, 1 h) amounted to 689 nM; in assay [3], 1860 nM.

These data come from patent US11186591B2, “Difluoromethyl-aminopyridines and difluoromethyl-aminopyrimidines” (TORQUR AG, priority 2014, dated 2021).
